Legend:
bedstraw = experiment: Test B pre/postemergence bedstraw; format: in vivo, Galium aparine
Procedure, shortened: (§1)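 Herbicidal effect was estimated by eye on a ten-point control scale after plants spent twelve to sixteen days in a greenhouse following soil or foliar treatment. Foliar sprays targeted plants at one to four leaves; all doses were formulated in a non-phytotoxic solvent with surfactant.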

blackgrass = experiment: Test B pre/postemergence blackgrass; format: in vivo, Alopecurus myosuroides
Procedure, shortened: as §1

surinam grass = experiment: Test B pre/postemergence surinam grass; format: in vivo, Brachiaria decumbens
Procedure, shortened: as §1

cocklebur = experiment: Test B pre/postemergence cocklebur; format: in vivo, Xanthium strumarium
Procedure, shortened: as §1

corn = experiment: Test B pre/postemergence corn; format: in vivo, Zea mays
Procedure, shortened: as §1

crabgrass = experiment: Test B pre/postemergence crabgrass; format: in vivo, Digitaria sanguinalis
Procedure, shortened: as §1

giant foxtail = experiment: Test B pre/postemergence giant foxtail; format: in vivo, Setaria faberii
Procedure, shortened: as §1

morningglory = experiment: Test B pre/postemergence morningglory; format: in vivo, Ipomoea hederacea
Procedure, shortened: as §1

pigweed = experiment: Test B pre/postemergence pigweed; format: in vivo, Amaranthus retroflexus
Procedure, shortened: as §1

rape = experiment: Test B pre/postemergence rape; format: in vivo, Brassica napus
Procedure, shortened: as §1

soybean = experiment: Test B pre/postemergence soybean; format: in vivo, Glycine max
Procedure, shortened: as §1

sugar beet = experiment: Test B pre/postemergence sugar beet; format: in vivo, Beta vulgaris
Procedure, shortened: as §1

velvetleaf = experiment: Test B pre/postemergence velvetleaf; format: in vivo, Abutilon theophrasti
Procedure, shortened: as §1

wheat = experiment: Test B pre/postemergence wheat; format: in vivo, Triticum aestivum
Procedure, shortened: as §1

wild oat = experiment: Test B pre/postemergence wild oat; format: in vivo, Avena fatua
Procedure, shortened: as §1

purple nutsedge = experiment: Test B pre/postemergence purple nutsedge; format: in vivo, Cyperus rotundus
Procedure, shortened: as §1

[1] = Postemergence, Rate 125 g/ha, scale of 0 to 10 where 0 is no effect and 10 is complete control
[2] = Preemergence, Rate 125 g/ha, scale of 0 to 10 where 0 is no effect and 10 is complete control
[3] = Preemergence, Rate 250 g/ha, scale 0 (no effect) to 10 (complete control)
[4] = Rate 62 g/ha, Preemergence, scale 0 to 10
[5] = Rate 250 g/ha, Postemergence, scale 0 to 10, 0 is no effect, 10 is complete control
[6] = Rate 500 g/ha, Preemergence, scale 0 to 10 (0 no effect, 10 complete control)
[7] = Postemergence, Rate 62 g/ha, scale 0 to 10, 0 is no effect, 10 is complete control
[8] = Rate 500 g/ha, Postemergence, scale 0 to 10, 0 is no effect, 10 is complete control

SMILES: C#CCn1c(=O)on(C(=O)N(c2ccccc2)C(C)C)c1=O [Compound 754]
- Bedstraw plant response rating (bedstraw; [1]): 0
- Plant response rating, Bedstraw (bedstraw; [2]): 0
- Bedstraw plant response rating (bedstraw; [3]): 0
- Bedstraw plant response rating (bedstraw; [4]): 0
- Bedstraw plant response rating (bedstraw; [5]): 0
- Bedstraw plant response rating (bedstraw; [6]): 0
- Plant response rating, Blackgrass (blackgrass; [7]): 2
- Blackgrass plant response rating (blackgrass; [1]): 4
- Plant response rating, Blackgrass (blackgrass; [2]): 9
- Blackgrass plant response rating (blackgrass; [3]): 9
- Blackgrass plant response rating (blackgrass; [4]): 7
- Blackgrass plant response rating (blackgrass; [5]): 5
- Blackgrass plant response rating (blackgrass; [8]): 5
- Blackgrass plant response rating (blackgrass; [6]): 9
- Plant response rating, B. signalgrass (surinam grass; [7]): 0
- B. signalgrass plant response rating (surinam grass; [1]): 2
- B. signalgrass plant response rating (surinam grass; Preemergence, Rate 62 g/ha, scale of 0 to 10 where 0 is no effect and 10 is complete control): 3
- Plant response rating, B. signalgrass (surinam grass; [2]): 3
- B. signalgrass plant response rating (surinam grass; [3]): 8
- B. signalgrass plant response rating (surinam grass; [5]): 6
- B. signalgrass plant response rating (surinam grass; [8]): 8
- B. signalgrass plant response rating (surinam grass; [6]): 9
- Plant response rating, Cocklebur (cocklebur; [7]): 0
- Cocklebur plant response rating (cocklebur; [1]): 0
- Plant response rating, Cocklebur (cocklebur; [2]): 0
- Cocklebur plant response rating (cocklebur; [3]): 0
- Cocklebur plant response rating (cocklebur; [4]): 0
- Cocklebur plant response rating (cocklebur; [5]): 0
- Cocklebur plant response rating (cocklebur; [8]): 0
- Cocklebur plant response rating (cocklebur; [6]): 0
- Plant response rating, Corn (corn; [7]): 0
- Corn plant response rating (corn; [1]): 0
- Plant response rating, Corn (corn; [2]): 0
- Corn plant response rating (corn; [3]): 0
- Corn plant response rating (corn; [4]): 0
- Corn plant response rating (corn; [5]): 2
- Corn plant response rating (corn; [8]): 5
- Corn plant response rating (corn; [6]): 0
- Plant response rating, Crabgrass (crabgrass; [7]): 5
- Crabgrass plant response rating (crabgrass; [1]): 5
- Plant response rating, Crabgrass (crabgrass; [2]): 9
- Crabgrass plant response rating (crabgrass; [3]): 9
- Crabgrass plant response rating (crabgrass; [4]): 8
- Crabgrass plant response rating (crabgrass; [5]): 9
- Crabgrass plant response rating (crabgrass; [8]): 9
- Crabgrass plant response rating (crabgrass; [6]): 9
- Plant response rating, Giant foxtail (giant foxtail; [7]): 4
- Giant foxtail plant response rating (giant foxtail; [1]): 8
- Plant response rating, Giant foxtail (giant foxtail; [2]): 9
- Giant foxtail plant response rating (giant foxtail; [3]): 9
- Giant foxtail plant response rating (giant foxtail; [4]): 8
- Giant foxtail plant response rating (giant foxtail; [5]): 8
- Giant foxtail plant response rating (giant foxtail; [8]): 8
- Giant foxtail plant response rating (giant foxtail; [6]): 9
- Plant response rating, Morningglory (morningglory; [7]): 10
- Morningglory plant response rating (morningglory; [1]): 10
- Plant response rating, Morningglory (morningglory; [2]): 0
- Morningglory plant response rating (morningglory; [3]): 1
- Morningglory plant response rating (morningglory; [4]): 0
- Morningglory plant response rating (morningglory; [5]): 10
- Morningglory plant response rating (morningglory; [8]): 10
- Morningglory plant response rating (morningglory; [6]): 1
- Redroot pigweed plant response rating (pigweed; [1]): 0
- Plant response rating, Redroot pigweed (pigweed; [2]): 8
- Redroot pigweed plant response rating (pigweed; [3]): 9
- Redroot pigweed plant response rating (pigweed; [4]): 8
- Redroot pigweed plant response rating (pigweed; [5]): 0
- Redroot pigweed plant response rating (pigweed; [6]): 9
- Plant response rating, Rape (rape; [7]): 0
- Rape plant response rating (rape; [1]): 0
- Plant response rating, Rape (rape; [2]): 4
- Rape plant response rating (rape; [3]): 6
- Rape plant response rating (rape; [4]): 0
- Rape plant response rating (rape; [5]): 0
- Rape plant response rating (rape; [8]): 0
- Rape plant response rating (rape; [6]): 8
- Plant response rating, Soybean (soybean; [7]): 0
- Plant response rating, Soybean (soybean; [2]): 0
- Soybean plant response rating (soybean; [3]): 0
- Soybean plant response rating (soybean; [4]): 0
- Soybean plant response rating (soybean; [5]): 2
- Soybean plant response rating (soybean; [8]): 2
- Soybean plant response rating (soybean; [6]): 0
- Plant response rating, Sugarbeets (sugar beet; [7]): 0
- Plant response rating, Sugarbeets (sugar beet; [2]): 0
- Sugarbeets plant response rating (sugar beet; [3]): 3
- Sugarbeets plant response rating (sugar beet; [4]): 0
- Sugarbeets plant response rating (sugar beet; [5]): 0
- Sugarbeets plant response rating (sugar beet; [8]): 3
- Sugarbeets plant response rating (sugar beet; [6]): 7
- Plant response rating, Velvetleaf (velvetleaf; [7]): 0
- Plant response rating, Velvetleaf (velvetleaf; [2]): 1
- Velvetleaf plant response rating (velvetleaf; [3]): 3
- Velvetleaf plant response rating (velvetleaf; [4]): 0
- Velvetleaf plant response rating (velvetleaf; [5]): 0
- Velvetleaf plant response rating (velvetleaf; [8]): 0
- Velvetleaf plant response rating (velvetleaf; [6]): 5
- Plant response rating, Wheat (wheat; [7]): 0
- Plant response rating, Wheat (wheat; [2]): 3
- Wheat plant response rating (wheat; [3]): 7
- Wheat plant response rating (wheat; [4]): 0
- Wheat plant response rating (wheat; [5]): 5
- Wheat plant response rating (wheat; [8]): 5
- Wheat plant response rating (wheat; [6]): 9
- Plant response rating, Wild oats (wild oat; [7]): 0
- Plant response rating, Wild oats (wild oat; [2]): 6
- Wild oats plant response rating (wild oat; [3]): 8
- Wild oats plant response rating (wild oat; [4]): 0
- Wild oats plant response rating (wild oat; [5]): 0
- Wild oats plant response rating (wild oat; [8]): 0
- Wild oats plant response rating (wild oat; [6]): 9
- Plant response rating, Nutsedge (purple nutsedge; [7]): 0
- Nutsedge plant response rating (purple nutsedge; [1]): 0
- Plant response rating, Nutsedge (purple nutsedge; [2]): 3
- Nutsedge plant response rating (purple nutsedge; [3]): 3
- Nutsedge plant response rating (purple nutsedge; [4]): 3
- Nutsedge plant response rating (purple nutsedge; [8]): 0
- Nutsedge plant response rating (purple nutsedge; [6]): 10

From patent US6737383B1, “Herbicidal oxadiazolidines” (priority 1999, dated 2004)
